Measurements reported in PubChem BioAssay AID602210 (Sanford-Burnham Center for Chemical Genomics, 2012).
The source made the active and inactive calls. No rule for the calls is given here.

Assay: modulators of 2-deoxyglucose-induced H9c2 death, dose response, myocardial damage modulator project, cell-based, ATPlite luminescence, rat, set 2 (AID 602210)
Conditions: H9c2 rat cardiomyoblasts, 2-deoxyglucose-induced death, 2 h

Structure (SMILES)	IC50
COc1cc(C(=O)NCC(=O)N/N=C/c2ccc(-c3cccc([N+](=O)[O-])c3)o2)cc(OC)c1OC	17.5 µM (inactive)
COCCn1nnnc1CN(CCc1ccccc1)Cc1cc2cc(OC)ccc2[nH]c1=O	> 79 µM (inactive)
CC(C)=NNc1cnnc2ccc([N+](=O)[O-])cc12	13.4 µM (inactive)
CC(C)(C)OC(=O)NCc1ccc(NC(=O)c2nc[nH]c2C(=O)NCCCCCCNC(=O)c2[nH]cnc2C(=O)Nc2ccc(CNC(=O)OC(C)(C)C)cc2)cc1	> 79 µM (inactive)
O=C(CN(c1ccc2c(c1)OCCO2)S(=O)(=O)c1ccccc1)Nc1ccc2c(c1)OCO2	14.7 µM (inactive)
COc1ccc(C(=O)Nc2cc(C)nn2-c2nc3ccccc3[nH]2)c(OC)c1	16.1 µM (inactive)
COc1cc(NC(=O)c2cccc3c(-c4cnn(C)c4)coc23)cc(OC)c1OC	> 79 µM (inactive)
CC(C)(C)OC(=O)N1CCC(NC(=O)c2nc[nH]c2C(=O)NCC(=O)OCc2ccccc2)CC1	4.3 µM
COc1ccc(NC(=O)c2oc3ccc(S(=O)(=O)N4CCOCC4)cc3c2C)cc1	15.3 µM (inactive)
CN(CC1COc2ccccc2O1)c1nc(-c2cccnc2)nc2ccccc12 (stereo not given)	18.9 µM (inactive)
O=C(CSc1nnc(-c2ccccc2)n1Cc1ccccc1)NNC(=O)c1ccccc1O	> 79 µM (inactive)
COc1ccccc1NC(=O)c1cc(-c2ccc(OC)c(OC)c2)nc2ccccc12	7.39 µM
COc1ccc(/C=N/NC(=O)c2cc(-c3ccc4c(c3)OCO4)n[nH]2)cc1OC	9.02 µM
CCOC(=O)c1ccc(-c2ccc(/C=C(\C#N)C(=O)NCC3CCCO3)o2)cc1 (stereo not given)	> 79 µM (inactive)
COc1cc(C(=O)N/N=C/c2ccc(OC(=O)c3cccc(C)c3)c(OC)c2)ccc1O	14.2 µM (inactive)
COc1ccc(CC(=O)N(Cc2ccccc2)c2ccccc2)cc1S(=O)(=O)N1CCOCC1	8.92 µM
COc1ccc(C(=O)Nc2cccc(/C(C)=N/NC(=O)c3ccc([N+](=O)[O-])c(C)c3)c2)cc1OC	18.7 µM (inactive)
Cn1nc(C(=O)Nc2nc(-c3ccccn3)cs2)c2ccccc2c1=O	> 79 µM (inactive)
COc1ccc(-c2cc(NC=O)c3ncc(-c4ccccc4)n3c2)cc1OC	> 79 µM (inactive)
O=C(CSc1nnc(Cc2cccs2)n1CCc1ccccc1)N1CCCc2ccccc21	13.9 µM (inactive)
COc1cccc(Nc2nc3ccccc3n3nnnc23)c1	> 79 µM (inactive)
CCOCCn1ccc2c(OCC(=O)Nc3cc(OC)ccc3OC)cccc2c1=O	> 79 µM (inactive)
COC(=O)c1ccc(N)c(N=CC2=C(O)CC(C)(C)CC2=O)c1	11.9 µM (inactive)

Structure (SMILES)	IC50
C#CCOc1nc(Nc2cccc([N+](=O)[O-])c2)nc(OCC#C)n1	24.9 µM (inactive)
Cc1ccc(NC(=O)c2nc[nH]c2C(=O)NCCCCCCNC(=O)c2[nH]cnc2C(=O)Nc2ccc(C)cc2)cc1	0.24 µM
COc1ccc(-c2oc3c(OC)c(OC)c(OC)c(O)c3c(=O)c2OC)cc1OC	> 79 µM (inactive)
COc1cc(-c2cnc3c(NC=O)cc(-c4ccsc4)cn23)cc(OC)c1OC	6.13 µM
CCOC(=O)c1c2c3c(cccc3n(C)c1=O)C(=O)c1ccccc1-2	15.8 µM (inactive)
CC(C)CC(C(=O)NC1CCCCC1)N(Cc1cccs1)C(=O)c1snc(C(N)=O)c1N (stereo not given)	29.3 µM (inactive)
COc1ccc(-c2cc(NC=O)c3ncc(-c4cccc(C(C)=O)c4)n3c2)cc1	> 79 µM (inactive)
COc1ccc(N(Cc2cc3cc(OC)ccc3[nH]c2=O)C(=O)c2cccnc2)cc1	> 79 µM (inactive)
CCOC(=O)N1CCN(C(=O)CSc2nc3ccccc3c(=O)n2-c2ccccc2)CC1	34.5 µM (inactive)
CCOC(=O)C1CCN(c2cc3c(cc2NC(=O)c2ccccc2Cl)n(C)c(=O)n3C)CC1	15.2 µM (inactive)
COc1ccc(OCC(O)Cn2c(Br)nc3c2c(=O)[nH]c(=O)n3C)cc1 (stereo not given)	38.1 µM (inactive)
COc1cc(/C=C(\C#N)C(=O)Nc2ccccc2)ccc1OCCN1CCOCC1	> 79 µM (inactive)
CCOC(=O)C1=C(C)Nc2ccccc2N=C1NC(=O)c1oc2ccccc2c1COC	6.98 µM
COc1ccc2cc3cc(C(=O)NCCc4ccc(OC)c(OC)c4)oc3nc2c1	10.4 µM (inactive)
O=C(Nc1ccc(C(=O)N2CCOCC2)cc1)c1cnn2c(C(F)F)cc(-c3ccccc3)nc12	> 79 µM (inactive)
COc1cccc(/C=N/NC(=O)c2nc(-c3ccccc3)cc(-c3ccccc3)n2)c1	> 79 µM (inactive)
NC(=O)c1nsc(C(=O)N(c2ccccc2)C(C(=O)NC2CCCC2)c2ccc3ncccc3c2)c1N (stereo not given)	6.5 µM
O=c1[nH]c(CSc2nnc(-c3cccnc3)n2C2CCCCC2)nc2ccccc12	> 79 µM (inactive)
COc1ccc2c(c1OC)C(=O)N1c3ccccc3C(=O)N(c3ccccc3)C21 (stereo not given)	8.7 µM
Cc1ccc(-c2nn3c(-c4ccco4)nnc3c3ccccc23)cc1S(=O)(=O)NCC1CCCO1 (stereo not given)	27.1 µM (inactive)
Cc1ccc(CN(C(=O)CNC(=O)c2cccs2)C(C(=O)NCC2CCCO2)c2ccccc2)cc1 (stereo not given)	19.1 µM (inactive)
Cc1ccc(-c2nnc(NCc3nc4ccccc4[nH]3)c3ccccc23)cc1S(=O)(=O)N1CCOCC1	11.3 µM (inactive)
